The target in one assay is T1, GFP-PKCγ (Homo sapiens, UniProt P05129).
T1 construct: expressed in transfected cells; host or cells: COS7 cells, electroporation, 48 h
As to the kind of experiment: PKCγ activity inhibitory action in TPA-treated COS7 cells expressing GFP-PKCγ (Western blotting for PKCγ and phosphorylated PKCγ). Type of assay: cell-based. As to conditions: treated with TPA and flavonoid, n=2 (Fig. 5). The method, then: The PKCγ activity inhibitory action of various flavonoids was tested. Scutellarin (Scu), baicalin (Bai), luteolin (Lut), and apigenin (Api) were used as various flavonoids. A plasmid encoding GFP-PKCγ was introduced into COS7 cells by electroporation and cultured for 48 hours to express GFP-PKCγ. After treating the cells with TPA (12-O-Tetradecanoylphorbol-13-acetate, activator of PKCγ) and each flavonoid, the cells were ground and proteins were subjected to SDS-PAGE. Thereafter, Western blotting was performed for PKCγ and phosphorylated PKCγ (activated form).

The subject of assay [1] is affective disorder model mice (DGKβKO mice). In words: elevated plus maze test (affective disorder evaluation system 1). Type of assay: in vivo. The note with it: relative to that in the case of taking placebo; male affective disorder model mice aged 8-11 weeks, drinking water containing 600 mg/L of lithium for 10 consecutive days. As for the experimental part: Mice in which DGKβ was knocked out (DGKβKO mice) were prepared as an affective disorder (mania) model. This model mice are not associated with dementia.
An elevated plus maze test was used. In an elevated plus maze, a passage with a wall (closed arm) and a passage without a wall (open arm) crossed each other in a cross shape, and normal mice (WT) were afraid of the open arm and stayed in the closed arm for a long time, while affective disorder model mice were less likely to feel anxiety and stayed in the open arm for a long time. Based on this, the ratio of the residence time in the open arm in the test time was used as an index of anxiety.
Male affective disorder model mice aged 8-11 weeks were allowed to freely drink water containing 600 mg/L of lithium for 10 consecutive days.
The affective disorder model mice orally administered with lithium were subjected to affective disorder evaluation system 1 (elevated plus maze test) to evaluate amelioration of affective disorder (mania).

We go through 4 compounds from patent EP4566600A1, “AFFECTIVE DISORDER AMELIORATING AGENT” (National University Corporation Kobe University, priority 2022, dated 2024).

Take `O=c1cc(-c2ccc(O)cc2)oc2cc(O)cc(O)c12` [apigenin]: on GFP-PKCγ, the “PKCγ activity inhibitory action” value is given as “observed”.

Take `O=C(O)[C@H]1O[C@@H](Oc2cc3oc(-c4ccccc4)cc(=O)c3c(O)c2O)[C@H](O)[C@@H](O)[C@@H]1O` [baicalin]: at GFP-PKCγ, the “PKCγ activity inhibitory action” value is listed as “observed”.

For `[Li]` [lithium], the “ratio of the residence time in the open arm” value in assay [1] is recorded as “about 30%”.

Consider `O=c1cc(-c2ccc(O)c(O)c2)oc2cc(O)cc(O)c12` [luteolin], for which the “PKCγ activity inhibitory action” value on GFP-PKCγ is reported as “observed”.
